Values after ≈ are worked out from the molar mass of the structure shown.
The molecules below were run on E. coli BW25113 (assay: MIC, microdilution in 96-well plates). Conditions: Escherichia coli, BW25113, E. coli BW25113; read-out: MIC.
Assay type: cell-based
Protocol: (§1) A microdilution method in 96-well plates was used and the MIC protocol established by the Clinical Laboratory Standards Institute was followed. From a growing subculture, a 1:10000 inoculum of each strain in Luria-Bertani media was prepared and aliquoted 100 μL in 4 columns of wells, except for the top row wells, which contained 200 μL of inoculum. A solution of gyramide C2 was aliquoted into 3 of the wells containing 200 μL and DMSO was added to the 4th well. The liquid in each of wells was mixed with a multi-channel pipet and 100 μL was transferred to the next well and mixed. The 2-fold dilution was continued down the 96-well plate until 100 μL was left, which was discarded. The plates were incubated at 37° C. with shaking for 16-18 hours. The MIC was determined as the lowest concentration that inhibited growth and had no turbidity by visual inspection.
(§2) Minimum inhibitory concentrations of various gyramide compounds against 20 strains of bacteria were determined using the procedure described above.
In the case of O=S(=O)(N[C@@H]1CCN(Cc2ccc(-c3ccccc3)cc2)C1)c1cnc2ccccc2c1 [Compound 178], the MIC is reported as greater than 8 µg/mL. CC(C)Oc1ccc(CN2CC[C@@H](NS(=O)(=O)c3cccnc3)C2)cc1 [Compound 167] showed an MIC greater than 8 µg/mL. For Cc1c(CN2CC[C@@H](NS(=O)(=O)c3cccc(OC(F)(F)F)c3)C2)cnn1-c1ccccc1 [Compound 144], the MIC was greater than 8 µg/mL. For O=S(=O)(N[C@@H]1CCN(Cc2ccc(OC3CC3)cc2)C1)c1ccc(Cl)cn1 [Compound 132], the MIC was greater than 8 µg/mL. Molecule Cc1ccc(S(=O)(=O)N[C@@H]2CCN(Cc3ccc(-c4ccccc4)cc3)C2)cn1 [Compound 174] has an MIC greater than 8 µg/mL. In the case of N#Cc1ccc(S(=O)(=O)N[C@@H]2CCN(Cc3ccc(OC4CC4)cc3)C2)cn1 [Compound 159], the MIC is reported as greater than 8 µg/mL.

These molecules were tested on Edwardsiella tarda (assay: MIC, microdilution in 96-well plates). Conditions: not given.
Assay type: cell-based
Protocol: as §1, §2
For O=S(=O)(N[C@@H]1CCN(Cc2ccc(-c3ccccc3)cc2)C1)c1cnc2ccccc2c1 [Compound 178], the MIC was greater than 8 µg/mL. Molecule CC(C)Oc1ccc(CN2CC[C@@H](NS(=O)(=O)c3cccnc3)C2)cc1 [Compound 167] has an MIC greater than 8 µg/mL. Work on Cc1c(CN2CC[C@@H](NS(=O)(=O)c3cccc(OC(F)(F)F)c3)C2)cnn1-c1ccccc1 [Compound 144] yielded an MIC greater than 8 µg/mL. O=S(=O)(N[C@@H]1CCN(Cc2ccc(OC3CC3)cc2)C1)c1ccc(Cl)cn1 [Compound 132] gave an MIC greater than 8 µg/mL. Cc1ccc(S(=O)(=O)N[C@@H]2CCN(Cc3ccc(-c4ccccc4)cc3)C2)cn1 [Compound 174] gave an MIC greater than 8 µg/mL. N#Cc1ccc(S(=O)(=O)N[C@@H]2CCN(Cc3ccc(OC4CC4)cc3)C2)cn1 [Compound 159] gave an MIC greater than 8 µg/mL.

Each molecule was assayed on Streptococcus agalactiae (assay: MIC, 20-strain panel). Conditions: not given.
Assay type: cell-based
Protocol: as §1, §2
O=S(=O)(N[C@@H]1CCN(Cc2ccc(-c3ccccc3)cc2)C1)c1cnc2ccccc2c1 [Compound 178] showed an MIC greater than 8 µg/mL. CC(C)Oc1ccc(CN2CC[C@@H](NS(=O)(=O)c3cccnc3)C2)cc1 [Compound 167] was tested, and the MIC was greater than 8 µg/mL. Cc1c(CN2CC[C@@H](NS(=O)(=O)c3cccc(OC(F)(F)F)c3)C2)cnn1-c1ccccc1 [Compound 144] was tested, and the MIC was greater than 8 µg/mL. Molecule O=S(=O)(N[C@@H]1CCN(Cc2ccc(OC3CC3)cc2)C1)c1ccc(Cl)cn1 [Compound 132] has an MIC greater than 8 µg/mL. Molecule Cc1ccc(S(=O)(=O)N[C@@H]2CCN(Cc3ccc(-c4ccccc4)cc3)C2)cn1 [Compound 174] has an MIC greater than 8 µg/mL. N#Cc1ccc(S(=O)(=O)N[C@@H]2CCN(Cc3ccc(OC4CC4)cc3)C2)cn1 [Compound 159] showed an MIC greater than 8 µg/mL.

Each molecule was assayed on Staphylococcus epidermidis (assay: MIC, 20-strain panel). Conditions: not given.
Assay type: cell-based
Protocol: as §1, §2
For O=S(=O)(N[C@@H]1CCN(Cc2ccc(-c3ccccc3)cc2)C1)c1cnc2ccccc2c1 [Compound 178], the MIC was greater than 8 µg/mL. Work on CC(C)Oc1ccc(CN2CC[C@@H](NS(=O)(=O)c3cccnc3)C2)cc1 [Compound 167] yielded an MIC greater than 8 µg/mL. For Cc1c(CN2CC[C@@H](NS(=O)(=O)c3cccc(OC(F)(F)F)c3)C2)cnn1-c1ccccc1 [Compound 144], the MIC was greater than 8 µg/mL. For O=S(=O)(N[C@@H]1CCN(Cc2ccc(OC3CC3)cc2)C1)c1ccc(Cl)cn1 [Compound 132], the MIC was greater than 8 µg/mL. Molecule Cc1ccc(S(=O)(=O)N[C@@H]2CCN(Cc3ccc(-c4ccccc4)cc3)C2)cn1 [Compound 174] has an MIC greater than 8 µg/mL. N#Cc1ccc(S(=O)(=O)N[C@@H]2CCN(Cc3ccc(OC4CC4)cc3)C2)cn1 [Compound 159] showed an MIC greater than 8 µg/mL.

What follows are molecules tested on Salmonella enterica subsp. enterica typhimurium (assay: MIC, 20-strain panel). Conditions: Salmonella enterica subsp. enterica Typhimurium.
Assay type: cell-based
Protocol: as §1, §2
O=S(=O)(N[C@@H]1CCN(Cc2ccc(-c3ccccc3)cc2)C1)c1cnc2ccccc2c1 [Compound 178] was tested, and the MIC was greater than 8 µg/mL. CC(C)Oc1ccc(CN2CC[C@@H](NS(=O)(=O)c3cccnc3)C2)cc1 [Compound 167] showed an MIC greater than 8 µg/mL. With Cc1c(CN2CC[C@@H](NS(=O)(=O)c3cccc(OC(F)(F)F)c3)C2)cnn1-c1ccccc1 [Compound 144] the MIC was greater than 8 µg/mL. In the case of O=S(=O)(N[C@@H]1CCN(Cc2ccc(OC3CC3)cc2)C1)c1ccc(Cl)cn1 [Compound 132], the MIC is reported as greater than 8 µg/mL. Work on Cc1ccc(S(=O)(=O)N[C@@H]2CCN(Cc3ccc(-c4ccccc4)cc3)C2)cn1 [Compound 174] yielded an MIC greater than 8 µg/mL. N#Cc1ccc(S(=O)(=O)N[C@@H]2CCN(Cc3ccc(OC4CC4)cc3)C2)cn1 [Compound 159] was tested, and the MIC was greater than 8 µg/mL.

What follows are molecules tested on Streptococcus pyogenes (assay: MIC, 20-strain panel). Conditions: not given.
Assay type: cell-based
Protocol: as §1, §2
Molecule O=S(=O)(N[C@@H]1CCN(Cc2ccc(-c3ccccc3)cc2)C1)c1cnc2ccccc2c1 [Compound 178] has an MIC greater than 8 µg/mL. For CC(C)Oc1ccc(CN2CC[C@@H](NS(=O)(=O)c3cccnc3)C2)cc1 [Compound 167], the MIC was greater than 8 µg/mL. Molecule Cc1c(CN2CC[C@@H](NS(=O)(=O)c3cccc(OC(F)(F)F)c3)C2)cnn1-c1ccccc1 [Compound 144] has an MIC greater than 8 µg/mL. For O=S(=O)(N[C@@H]1CCN(Cc2ccc(OC3CC3)cc2)C1)c1ccc(Cl)cn1 [Compound 132], the MIC was greater than 8 µg/mL. In the case of Cc1ccc(S(=O)(=O)N[C@@H]2CCN(Cc3ccc(-c4ccccc4)cc3)C2)cn1 [Compound 174], the MIC is reported as greater than 8 µg/mL. N#Cc1ccc(S(=O)(=O)N[C@@H]2CCN(Cc3ccc(OC4CC4)cc3)C2)cn1 [Compound 159] was tested, and the MIC was greater than 8 µg/mL.

Each molecule was assayed on Staphylococcus saprophyticus subsp. saprophyticus (assay: MIC, 20-strain panel). Conditions: not given.
Assay type: cell-based
Protocol: as §1, §2
With O=S(=O)(N[C@@H]1CCN(Cc2ccc(-c3ccccc3)cc2)C1)c1cnc2ccccc2c1 [Compound 178] the MIC was greater than 8 µg/mL. For CC(C)Oc1ccc(CN2CC[C@@H](NS(=O)(=O)c3cccnc3)C2)cc1 [Compound 167], the MIC was greater than 8 µg/mL. Work on Cc1c(CN2CC[C@@H](NS(=O)(=O)c3cccc(OC(F)(F)F)c3)C2)cnn1-c1ccccc1 [Compound 144] yielded an MIC greater than 8 µg/mL. O=S(=O)(N[C@@H]1CCN(Cc2ccc(OC3CC3)cc2)C1)c1ccc(Cl)cn1 [Compound 132] was tested, and the MIC was greater than 8 µg/mL. Cc1ccc(S(=O)(=O)N[C@@H]2CCN(Cc3ccc(-c4ccccc4)cc3)C2)cn1 [Compound 174] showed an MIC greater than 8 µg/mL. In the case of N#Cc1ccc(S(=O)(=O)N[C@@H]2CCN(Cc3ccc(OC4CC4)cc3)C2)cn1 [Compound 159], the MIC is reported as greater than 8 µg/mL.

The molecules below were run on E. coli MG1655 (assay: MIC, 20-strain panel). Conditions: Escherichia coli, MG1655, E. coli MG1655; read-out: MIC.
Assay type: cell-based
Protocol: as §1, §2
With O=S(=O)(N[C@@H]1CCN(Cc2ccc(-c3ccccc3)cc2)C1)c1cnc2ccccc2c1 [Compound 178] the MIC was greater than 8 µg/mL. In the case of CC(C)Oc1ccc(CN2CC[C@@H](NS(=O)(=O)c3cccnc3)C2)cc1 [Compound 167], the MIC is reported as greater than 8 µg/mL. Molecule Cc1c(CN2CC[C@@H](NS(=O)(=O)c3cccc(OC(F)(F)F)c3)C2)cnn1-c1ccccc1 [Compound 144] has an MIC greater than 8 µg/mL. O=S(=O)(N[C@@H]1CCN(Cc2ccc(OC3CC3)cc2)C1)c1ccc(Cl)cn1 [Compound 132] was tested, and the MIC was greater than 8 µg/mL. Work on Cc1ccc(S(=O)(=O)N[C@@H]2CCN(Cc3ccc(-c4ccccc4)cc3)C2)cn1 [Compound 174] yielded an MIC greater than 8 µg/mL. N#Cc1ccc(S(=O)(=O)N[C@@H]2CCN(Cc3ccc(OC4CC4)cc3)C2)cn1 [Compound 159] showed an MIC greater than 8 µg/mL.

Each molecule was assayed on Shigella flexneri (assay: MIC, 20-strain panel). Conditions: not given.
Assay type: cell-based
Protocol: as §1, §2
O=S(=O)(N[C@@H]1CCN(Cc2ccc(-c3ccccc3)cc2)C1)c1cnc2ccccc2c1 [Compound 178] showed an MIC greater than 8 µg/mL. Work on CC(C)Oc1ccc(CN2CC[C@@H](NS(=O)(=O)c3cccnc3)C2)cc1 [Compound 167] yielded an MIC greater than 8 µg/mL. Cc1c(CN2CC[C@@H](NS(=O)(=O)c3cccc(OC(F)(F)F)c3)C2)cnn1-c1ccccc1 [Compound 144] gave an MIC greater than 8 µg/mL. With O=S(=O)(N[C@@H]1CCN(Cc2ccc(OC3CC3)cc2)C1)c1ccc(Cl)cn1 [Compound 132] the MIC was greater than 8 µg/mL. Molecule Cc1ccc(S(=O)(=O)N[C@@H]2CCN(Cc3ccc(-c4ccccc4)cc3)C2)cn1 [Compound 174] has an MIC greater than 8 µg/mL. N#Cc1ccc(S(=O)(=O)N[C@@H]2CCN(Cc3ccc(OC4CC4)cc3)C2)cn1 [Compound 159] was tested, and the MIC was greater than 8 µg/mL.

These molecules were tested on E. coli JW5503 (deltolC) (assay: MIC, 20-strain panel). Conditions: Escherichia coli, E. coli JW5503 (deltolC).
Assay type: cell-based
Protocol: as §1, §2
For O=S(=O)(N[C@@H]1CCN(Cc2ccc(-c3ccccc3)cc2)C1)c1cnc2ccccc2c1 [Compound 178], the MIC was greater than 8 µg/mL. With CC(C)Oc1ccc(CN2CC[C@@H](NS(=O)(=O)c3cccnc3)C2)cc1 [Compound 167] the MIC was greater than 8 µg/mL. Molecule Cc1c(CN2CC[C@@H](NS(=O)(=O)c3cccc(OC(F)(F)F)c3)C2)cnn1-c1ccccc1 [Compound 144] has an MIC of 8 µg/mL (≈ 16.6 µM). O=S(=O)(N[C@@H]1CCN(Cc2ccc(OC3CC3)cc2)C1)c1ccc(Cl)cn1 [Compound 132] gave an MIC greater than 8 µg/mL. For Cc1ccc(S(=O)(=O)N[C@@H]2CCN(Cc3ccc(-c4ccccc4)cc3)C2)cn1 [Compound 174], the MIC was greater than 8 µg/mL. Work on N#Cc1ccc(S(=O)(=O)N[C@@H]2CCN(Cc3ccc(OC4CC4)cc3)C2)cn1 [Compound 159] yielded an MIC greater than 8 µg/mL.

The molecules below were run on Klebsiella pneumoniae subsp. pneumoniae (assay: MIC, 20-strain panel). Conditions: Klebsiella pneumoniae subsp. pneumoniae.
Assay type: cell-based
Protocol: as §1, §2
O=S(=O)(N[C@@H]1CCN(Cc2ccc(-c3ccccc3)cc2)C1)c1cnc2ccccc2c1 [Compound 178] showed an MIC greater than 8 µg/mL. CC(C)Oc1ccc(CN2CC[C@@H](NS(=O)(=O)c3cccnc3)C2)cc1 [Compound 167] gave an MIC greater than 8 µg/mL. Cc1c(CN2CC[C@@H](NS(=O)(=O)c3cccc(OC(F)(F)F)c3)C2)cnn1-c1ccccc1 [Compound 144] was tested, and the MIC was greater than 8 µg/mL. O=S(=O)(N[C@@H]1CCN(Cc2ccc(OC3CC3)cc2)C1)c1ccc(Cl)cn1 [Compound 132] showed an MIC greater than 8 µg/mL. In the case of Cc1ccc(S(=O)(=O)N[C@@H]2CCN(Cc3ccc(-c4ccccc4)cc3)C2)cn1 [Compound 174], the MIC is reported as greater than 8 µg/mL. N#Cc1ccc(S(=O)(=O)N[C@@H]2CCN(Cc3ccc(OC4CC4)cc3)C2)cn1 [Compound 159] showed an MIC greater than 8 µg/mL.

Each molecule was assayed on Staphylococcus aureus subsp. aureus (assay: MIC, 20-strain panel). Conditions: Staphylococcus aureus subsp. aureus, read-out: MIC.
Assay type: cell-based
Protocol: as §1, §2
O=S(=O)(N[C@@H]1CCN(Cc2ccc(-c3ccccc3)cc2)C1)c1cnc2ccccc2c1 [Compound 178] was tested, and the MIC was greater than 8 µg/mL. With CC(C)Oc1ccc(CN2CC[C@@H](NS(=O)(=O)c3cccnc3)C2)cc1 [Compound 167] the MIC was greater than 8 µg/mL. Cc1c(CN2CC[C@@H](NS(=O)(=O)c3cccc(OC(F)(F)F)c3)C2)cnn1-c1ccccc1 [Compound 144] showed an MIC greater than 8 µg/mL. With O=S(=O)(N[C@@H]1CCN(Cc2ccc(OC3CC3)cc2)C1)c1ccc(Cl)cn1 [Compound 132] the MIC was greater than 8 µg/mL. Cc1ccc(S(=O)(=O)N[C@@H]2CCN(Cc3ccc(-c4ccccc4)cc3)C2)cn1 [Compound 174] showed an MIC greater than 8 µg/mL. In the case of N#Cc1ccc(S(=O)(=O)N[C@@H]2CCN(Cc3ccc(OC4CC4)cc3)C2)cn1 [Compound 159], the MIC is reported as greater than 8 µg/mL.

Reference: US10253039B2, “Inhibitors of bacterial DNA gyrase with efficacy against gram-negative bacteria” (priority 2014, dated 2019)
